Test results reported in patent US9605026B2, “Hydrogen-bond surrogate peptides and peptidomimetics for p53 reactivation” (New York University, priority 2013, dated 2017).

Key:
Assay type in all cases: cell-based, human
p53 [1] = assay: p53 transcriptional activity (Cignal p53 luciferase reporter) in UMSCC47 cells; conditions: 24 hours
Source text: (§1) FIG. 5A is an schematic illustration showing that CH1 has two distinct target sites. HIF1-α/p300 structures were used as guides to design helix mimetics that target site A and site B on the CH1 domain of p300. […] CH1iA (SEQ ID NO: 7) and CH1iB (SEQ ID NO: 8) were designed to mimic two helices from the C-terminal domain of HIF-1α. The peptides were locked into the helical conformation by the hydrogen bond surrogate method. FIG. 5C is a graph of p53 activity. UMSCC47 (left) and UMSCC74A (right) cells were co-transfected with a p53 Firefly luciferase reporter plasmid and a control Renilla luciferase plasmid. After 24 hours, cells were treated with control (vehicle), CH1iA (10 μM), or CH1iB (10 μM) for 24 hours. Firefly luciferase activity was normalized to Renilla luciferase activity to control for transfection efficiency. Data is normalized to control and presented as mean±SEM. *P<0.05, n=3. FIG. 5D is a western blot showing total and acetylated p53 levels. UMSCC47 (left) and UMSCC74A (right) cells were treated with control (vehicle), CH1iA (10 μM), or CH1iB (10 μM) for 24 hours. Cell lysates were immunoblotted with anti-p53 or anti-acetylated[K382]-p53 antibody. FIG. 5E is a pair of graphs of p300, p53, p21, miR-34a, and miR-200c expression. UMSCC47 (top panel) and UMSCC74A (bottom panel) cells were treated with control (vehicle), CH1iA (10 μM), or CH1iB (10 μM) for 24 hours. mRNA expression was determined using qPCR with validated TaqMan assays. Data is normalized to control cells and presented as mean±SEM. *P<0.01, control vs. CH1iB, n=3. FIG. 5F is a western blot showing HPV16 E6-p300 association. UMSCC47 cells were treated with control (vehicle), CH1iA (10 μM), or CH1iB (10 μM) for 24 hours. Cell lysates were extracted, immunoprecipitated with anti-p300 antibody, and immunoblotted with anti-E6 antibody. Cell lysates were immunoblotted with anti-E6 or anti-p300 antibody for input control. FIG. 5G is a set of graphs of cell proliferation. UMSCC47 (top left panel), UMSCC74A (top right panel), and IMR90 (human normal fibroblasts) (bottom panel) cells were treated with control (vehicle), CH1iA (10 μM), CH1iB (10 μM), cis-platinum (10 μM), CH1iA (10 μM) and cis-platinum (10 μM), or CH1iB (10 μM) and cis-platinum (10 μM) for 24, 48, or 72 hours. Data is normalized to Day 0 and presented as mean±SEM. *P<0.01, control vs. CH1iB or cis-platinum, **P<0.01 CH1iB or cis-platinum vs. CH1iB and cis-platinum, n=6.
FIG. 6A is a western blot showing total and acetylated p53 levels. […] UMSCC47 cells were treated with control (vehicle), CH1iB (10 μM), cis-platinum (10 μM), or CH1iB (10 μM) and cis-platinum (10 μM) for 24 hours. mRNA expression was determined using qPCR with validated TaqMan assays. […]

p53 [2] = assay: Western blot of total and acetylated[K382] p53 in UMSCC47 cells; conditions: 24 hours; for acetylated p53 levels / p53 accumulation (total p53 level): UMSCC47, 10 μM
Source text: as §1
FIG. 6A is a western blot showing total and acetylated p53 levels. UMSCC47 cells were treated with control (vehicle), CH1iB (10 μM), cis-platinum (10 μM), or CH1iB (10 μM) and cis-platinum (10 μM) for 24 hours. Cell lysates were immunoblotted with anti-p53 or anti-acetylated[K382]-p53 antibody. FIG. 6B is a graph of p53 transcriptional activity. UMSCC47 cells were co-transfected with a p53 Firefly luciferase reporter plasmid and a control Renilla luciferase plasmid. After 24 hours, cells were treated with control (vehicle), CH1iB (10 μM), cis-platinum (10 μM), or CH1iB (10 μM) and cis-platinum (10 μM) for 24 hours. Firefly luciferase activity was normalized to Renilla luciferase activity to control for transfection efficiency. Data is normalized to control and presented as mean±SEM. *P<0.01, control vs. CH1iB, cis-platinum or CH1iB+cis-platinum, **P<0.01 CH1iB or cis-platinum vs. CH1iB+cis-platinum, n=5. FIG. 6C is a graph of p300, p53, p21, miR-34a, and miR-200c expression. UMSCC47 cells were treated with control (vehicle), CH1iB (10 μM), cis-platinum (10 μM), or CH1iB (10 μM) and cis-platinum (10 μM) for 24 hours. mRNA expression was determined using qPCR with validated TaqMan assays. Data is normalized to control cells and presented as mean±SEM. *P<0.01, control vs. CH1iB, cis-platinum or CH1iB+cis-platinum, **P<0.01 CH1iB or cis-platinum vs. CH1iB+cis-platinum, n=3. FIG. 6D is a pair of graphs of apoptosis. […]

p53 [3] = assay: Western blot of total and acetylated[K382] p53 in UMSCC74A cells; conditions: UMSCC74A (HPV-negative, p53 wildtype), 10 μM, 24 hours
Source text: (§2) FIG. 5A is an schematic illustration showing that CH1 has two distinct target sites. HIF1-α/p300 structures were used as guides to design helix mimetics that target site A and site B on the CH1 domain of p300. […] CH1iA (SEQ ID NO: 7) and CH1iB (SEQ ID NO: 8) were designed to mimic two helices from the C-terminal domain of HIF-1α. The peptides were locked into the helical conformation by the hydrogen bond surrogate method. FIG. 5C is a graph of p53 activity. UMSCC47 (left) and UMSCC74A (right) cells were co-transfected with a p53 Firefly luciferase reporter plasmid and a control Renilla luciferase plasmid. After 24 hours, cells were treated with control (vehicle), CH1iA (10 μM), or CH1iB (10 μM) for 24 hours. Firefly luciferase activity was normalized to Renilla luciferase activity to control for transfection efficiency. Data is normalized to control and presented as mean±SEM. *P<0.05, n=3. FIG. 5D is a western blot showing total and acetylated p53 levels. UMSCC47 (left) and UMSCC74A (right) cells were treated with control (vehicle), CH1iA (10 μM), or CH1iB (10 μM) for 24 hours. Cell lysates were immunoblotted with anti-p53 or anti-acetylated[K382]-p53 antibody. […] UMSCC47 (top panel) and UMSCC74A (bottom panel) cells were treated with control (vehicle), CH1iA (10 μM), or CH1iB (10 μM) for 24 hours. mRNA expression was determined using qPCR with validated TaqMan assays. […]

[4] = system: p300, p53, and p53-regulated genes; assay: qPCR expression of p300, p53, p21, miR-34a, miR-200c in UMSCC74A cells; conditions: 10 μM, 24 hours
Source text: as §2, with “hours.” for “hours. Firefly luciferase activity was normalized to Renilla luciferase activity to control for transfection efficiency. Data is normalized to control and presented as mean±SEM. *P<0.05, n=3. FIG. 5D is a western blot showing total and acetylated p53 levels. UMSCC47 (left) and UMSCC74A (right) cells were treated with control (vehicle), CH1iA (10 μM), or CH1iB (10 μM) for 24 hours. Cell lysates were immunoblotted with anti-p53 or anti-acetylated[K382]-p53 antibody.”
Cells were extracted for total RNA using the TRIzol® reagent (Invitrogen) or TaqMan PreAmp Cells-to-CT kit (Applied Biosystems). Expression of p300, p53, p21, miR-34a and miR-200c were determined using the Applied Biosystems 7900HT Fast Real-Time PCR System with validated TaqMan gene expression assays (Applied Biosystems). p53, p300, and p21 expression were normalized to GADPH and miR-34a and miR-200c expression were normalized to RNU44 using the ΔΔCt method.

UMSCC74A cells = assay: Cell proliferation (MTT) in UMSCC74A cells; conditions: for cell proliferation, single-agent: UMSCC74A (HPV-negative), 10 μM; for effect on efficacy of cis-platinum on proliferation: UMSCC74A, 10 μM with cis-platinum 10 μM
Source text: as §1, with “Data is normalized to Day 0 and presented as mean±SEM. *P<0.01, control vs. CH1iB or cis-platinum, **P<0.01 CH1iB or cis-platinum vs. CH1iB and cis-platinum, n=6.” left out
Cell proliferation was assessed using the MTT reagent (Roche Molecular Biochemicals, Nutley, N.J.) to detect metabolic active cells. Absorbance was measured at 570 nm in the Spectra Max 190 ELISA reader (Molecular Devices, Sunnyvale, Calif.) after overnight incubation. […] Apoptotic cells were analyzed using BD FACS Calibur (BD Biosciences Corporation, Franklin Lakes, N.J.) at The Ohio State University Comprehensive Cancer Center Analytical Cytometry Core.

[5] = UMSCC47, CH1iB 10 μM with cis-platinum 10 μM

Row | Substance | p53 activity increase (p53 [1]; UMSCC47 (HPV-positive), 10 μM, vs control (vehicle)) [%] | effect of cis-platinum on p53 activity (p53 [1]; [5]) | acetylated p53 levels (p53 [2]) | p53 accumulation (total p53 level) (p53 [2]) | effect of cis-platinum on p53 accumulation (p53 [2]; [5]) | effect of cis-platinum on p53 acetylation (p53 [2]; [5]) | p53 levels (p53 [3]) | Expression of p300, p53, and p53-regulated genes [4] | cell proliferation, single-agent (UMSCC74A cells) | effect on efficacy of cis-platinum on proliferation (UMSCC74A cells) | p53 activity, effect in words (p53 [1]; UMSCC47 (HPV-positive), 10 μM)
1 | XELA*RALDQ-NH2 (ELXRALDQ; HBS: 4-pentenoic acid, N-allylalanine; C-terminal amide; CH1iB) [X 4-pentenoic acid, A* N-allylalanine] | 71 | potentiated | enhanced | enhanced | potentiated | potentiated | did not modulate | unchanged | no effect | did not augment | 
2 | XTAA*DCEYNAR (TAXDCEYNAR; HBS: 4-pentenoic acid, N-allylalanine; CH1iA) [X 4-pentenoic acid, A* N-allylalanine, reference compound] |  |  | no effect | no effect |  |  | did not modulate | unchanged | no effect | did not augment | no effect
